From patent US4386103A, “Dichloroamino acid derivatives useful as potent germicidal and fungicidal agents” (Merck & Co., Inc., priority 1981, dated 1983) come the findings set out here.

Holding throughout (format): cell-based
One assay has as its system Bacillus subtilis. Description: Contact germicidal screen, Bacillus subtilis ATCC No. 60511. On the procedure:
The organisms used in the contact germicidal screen are all maintained as stock cultures on nutrient agar […] 4° C. They are transferred and biochemically diagnosed monthly. The five organisms used are: The media used are: […] Overnight cultures of the test organisms are grown in tryptose phosphate broth. After 15-16 hours, the cultures are centrifuged at […] for 15 minutes, and the supernatant replaced with fresh warm (37° C.) media. After two hours of incubation, the absorbance of the culture at 650 nm is determined and diluted with nutrient broth to 1×10^7 colony forming units per ml (using a previous determined standard curve: colony forming units/ml vs. absorbance at 650). The diluted cultures are maintained at 4°-8° C. throughout the screen. The compounds are weighed into sterile 100 ml volumetric flasks, and immediately before screening dissolved in one of the following buffers: 0.1 M NaOAc pH 4.6 or 0.1 M NaH2 PO4 pH 7.0. If solubility poses a problem, 10-30% methanol is used to effect solution. Two denaturing agents are also tested: […] Horse Serum restored with 100 ml distilled water and 10% Trition×100. When used, 2.5 ml of the denaturing agent is mixed with 2.5 ml of double strength test solution thirty minutes before the bacterial suspension is added. The screen is initiated when 0.2 ml of the bacterial suspension is added to 5.0 ml of the test solution contained in a sterile 25 ml glass stoppered flask. At intervals of 0.5, 2.5, 5.0, 10.0 and 15.0 minutes, a loopful of the inoculated test solution is subcultured into 5 ml of sterile nutrient broth and mixed with a vortex, the high dilution serving to stop the action of the compound. All of the subculture tubes are incubated at 37° C. and checked for signs of growth by turbidity at 1, 3, 5 and 7 days. The earliest subculture time at which no growth is present is considered the endpoint and is recorded as the sterilization time. An aliquot of 0.2 ml of the diluted culture is transferred to 5 ml of buffer to simulate 0.2 ml in 5 ml of test solution. (a) Purity: A loopful of the inoculated buffer is streaked onto nutrient agar to check colony morphology and lack of contaminants. (b) Viability: A loopful of the inoculated buffer is subcultured to 5 ml of nutrient broth as in the screen and incubated at 37° C. for 24 hours. (c) Dilution of the Test Solution: A loopful of the test solution is transferred to a 5 ml tube of nutrient broth, and a loopful of the inoculated buffer is transferred to the same tube of broth. […] (d) Purity of Organisms in the Test Solution: After the 15 minute subculture, a loopful of the inoculated test solution is streaked onto nutrient agar to insure that contamination has not occurred during the screen. (e) lack of Bactericidal Activity of Buffers and Other Solvents: Before a buffer or other solvent is used as a diluent, it is screened against the five organisms to insure that the buffer or solvent has no antibacterial activity itself.

Assay [1] relates to Trychophyton mentagrophytes. The assay is described as follows: Contact fungicidal screen, Trychophyton mentagrophytes. As to conditions: 0.1M NaOAc pH 4.6.
The subject of the next assay is Candida albican. Description: Contact fungicidal screen, Candida albican. To be noted: 0.1M NaOAc pH 4.6. On the procedure: The organisms used in the Contact Fungicidal Screen are a dermatophyte, trychophyton mentagrophytes, frequently associated with athlete's foot; a yeast, Candida albican, causative agent of thrush and vaginitis; a phycomycete, Rhizopus oryzae, commonly known as black bread mold; an ascomycete, Aspergillus fumagatis, found in chicken droppings and causing lung infections; and another dermatophyte, Microsporum canis, which causes ringworm. These organisms are maintained as stock cultures at 4° C. on agar slants of the following composition: dextrose 2%, Neopeptone (Difco) 1%, agar 2%. Fluid medium of the same nutrient composition (without agar) was used to test the viability of the organisms after exposure to the fungicide. This medium is also known as Sabouraud's medium.
The Candida albican is grown in Sabouraud's liquid medium at 25°-30° C. for three days. At the end of the incubation period the cell suspension is centrifuged at 200 G and washed with sterile physiological saline (0.85% NaCl). The density of the cell suspension is determined by counting in a hemacytometer. The suspension is stored a 4° C. until it is used, at which time it is diluted with sterile physiological saline to a density of 5×10^6 cells per ml.
The compounds are weighed into heat sterilized 100 ml volumetric flasks and immediately before screening dissolved in 0.1 M NaOAc pH 4.6 buffer (test solutions).
The Aspergillus, Candida, Microsporum and Rhizopus species are screened in a slightly different manner. Basically, the procedure for the Contact Germicidal Efficiency Screen is utilized. After the test solutions are made up, 5 ml aliquots are pipetted into heat sterilized 25 ml glass stoppered erlenmeyer flasks. The screen is initiated when 0.5 ml of the 5×10^6 cell (spore) per ml suspension is added to the flask containing 5 ml of the test solution. At intervals of 0.5, 2.5, 5.0, 10.0 and 15.0 minutes, a 4 mm loopful of the inoculated test solution is subcultured into 7 mL of sterile fluid Sabouraud's medium and mixed on a vortex, the high dilution serving to stop the action of the compound. The subculture tubes are incubated at 25°-30° C. for ten days with daily observation for mycelial growth. The earliest subculture time at which no growth is present is considered the endpoint and is recorded as the sterilization time.
To insure the viability of the culture, a 0.5 ml aliquot of the 5×10^6 cells (spores) per ml suspension is transferred to 5 ml of the pH 4.6 buffer. A loopful of the inoculated buffer is then subcultured to 7 ml of fluid Sabouraud's medium and incubated at 25°-30° C. for ten days. To insure that the dilution of the test solution into the subculture medium does stop the action, a loopful of the test solution and a loopful of the inoculated buffer are transferred into the same subculture tube. This tube is also incubated at 25°-30° C. for ten days.

Where [2] appears, read: 10.0+ PPM, 0.1M NaOAc pH 4.6, screened simultaneously with four other compounds.
Where [3] appears, read: 300 PPM with 50% Horse Serum, 0.1M NaOAc pH 4.6.
The mark [4] stands for this setting: 300 PPM with 50% Triton X100, 0.1M NaOAc pH 4.6.
Setting [5] is: 1000 PPM with 50% Horse Serum, 0.1M NaOAc pH 4.6.

As for `CC(C)(CCC(=O)O)N(Cl)Cl` [(III), 4-Dichloroamino-4-methylvaleric acid], the “Sterilization Time” value turned out to be 2.5 min with Bacillus subtilis (9.6 PPM, 0.1M NaOAc pH 4.6); 15 min in the assay on Bacillus subtilis (9.7 PPM, 0.1M NaH2PO4 pH 7.0); 2.5 min in the assay with Bacillus subtilis (setting [2]); 0.5 min in the assay on Bacillus subtilis (102.2 PPM, 0.1M NaOAc pH 4.6); 10.0 min in the assay on Bacillus subtilis (103.5 PPM, 0.1M NaH2PO4 pH 7.0); 0.5 min in the assay with Bacillus subtilis (308.0 PPM, Triton X100 (10% solution):pH 4.6 buffer 1:1). Further, the “Sterilization Time” value was found to be 2.5 min with Bacillus subtilis (308.0 PPM, horse serum:pH 4.6 buffer 1:1); 0.5 min in the assay with Bacillus subtilis (1000.0 PPM, horse serum:pH 4.6 buffer 1:1); 0.5 min in the assay with Bacillus subtilis (1007.7 PPM, 0.1M NaOAc pH 4.6); 2.5 min in the assay on Bacillus subtilis (1012.3 PPM, 0.1M NaH2PO4 pH 7.0); 5.0 min in assay [1] (10 PPM); 0.5 min in assay [1] (100 PPM). Besides, the “Sterilization Time” value is on record as 0.5 min in assay [1] (1000 PPM), 15 min in the assay with Candida albican (10 PPM), 15 min with Candida albican (100 PPM) and 0.5 min with Candida albican (1000 PPM). The “Sterilization Time (summary)” value in the assay with Bacillus subtilis (10 PPM, 0.1M NaOAc pH 4.6) worked out at 2.5 min; with Bacillus subtilis (100 PPM, 0.1M NaOAc pH 4.6), 0.5 min; in the assay on Bacillus subtilis (setting [3]), 2.5 min; with Bacillus subtilis (setting [4]), 0.5 min; with Bacillus subtilis (setting [5]) it was 0.5 min; in the assay on Bacillus subtilis (1000 PPM, 0.1M NaOAc pH 4.6) it was 0.5 min.
Turning to `CC(C)(COC(=O)CCCC(=O)O)N(Cl)Cl` [(V), 2-dichloramino-2-methylpropyl-hemiglutarate], the “Sterilization Time” value in the assay with Bacillus subtilis (setting [2]) is 2.5 min; in the assay on Bacillus subtilis (10.0 PPM, 0.1M NaH2PO4 pH 7.0), 15 min; with Bacillus subtilis (10.0 PPM, 0.1M NaOAc pH 4.6), 5.0 min; in the assay on Bacillus subtilis (99.1 PPM, 0.1M NaOAc pH 4.6), 2.5 min; in the assay with Bacillus subtilis (106.7 PPM, 0.1M NaH2PO4 pH 7.0), 10.0 min; in the assay with Bacillus subtilis (291.4 PPM, Triton X100 (10% solution):pH 4.6 buffer 1:1), 0.5 min. The “Sterilization Time” value in the assay on Bacillus subtilis (291.4 PPM, horse serum:pH 4.6 buffer 1:1) amounted to 5.0 min; in the assay on Bacillus subtilis (911.8 PPM, 0.1M NaOAc pH 4.6), 0.5 min; with Bacillus subtilis (1024.4 PPM, 0.1M NaH2PO4 pH 7.0) it was 2.5 min; with Bacillus subtilis (1042.0 PPM, horse serum:pH 4.6 buffer 1:1), 0.5 min; in assay [1] (10 PPM), 5.0 min; in assay [1] (100 PPM), 2.5 min. In addition, the “Sterilization Time” value is 0.5 min in assay [1] (1000 PPM), 15 min in the assay on Candida albican (10 PPM), 15 min with Candida albican (100 PPM) and 0.5 min with Candida albican (1000 PPM). Further, the “Sterilization Time (summary)” value in the assay on Bacillus subtilis (10 PPM, 0.1M NaOAc pH 4.6) was determined as 2.5 min; with Bacillus subtilis (100 PPM, 0.1M NaOAc pH 4.6), 2.5 min; in the assay with Bacillus subtilis (setting [3]), 5.0 min; in the assay with Bacillus subtilis (setting [4]) it was 0.5 min; with Bacillus subtilis (setting [5]), 0.5 min; in the assay on Bacillus subtilis (1000 PPM, 0.1M NaOAc pH 4.6), 0.5 min.
